{
  "source": "patent US20120122870A1",
  "about": "“Treatment Of Ischemia-Reperfusion Injury” (MUSC FOUNDATION FOR RESEARCH DEVELOPMENT, priority 2009, published 2012)",
  "data": [
    {"tested_on": "endogenous SK activity in MDA-MB-231 cells", "test": "Cellular S1P production (endogenous SK activity) in MDA-MB-231 cells", "format": "cell-based", "conditions": "Homo sapiens, MDA-MB-231, MDA-MB-231 cells incubated with 20 μg/mL of compound; percentage of S1P production inhibited", "method": "(§1) Human SK was incubated with 6 μg/mL of the indicated compounds, and then assayed for activity as described above. Values in the column labeled “Recombinant SK (% inhibition)” represent the percentage of SK activity that was inhibited. MDA-MB-231 cells were incubated with 20 μg/mL of the indicated compounds and then assayed for endogenous SK activity as indicated above. Values in the column labeled “Cellular S1P (% inhibition)” represent the percentage of S1P production that was inhibited. Additionally, MDA-MB-231 cells were treated with varying concentration of certain compounds and the amount of S1P produced by the cells was determined. Values in the column labeled “Cellular S1P IC50 (μM)” represent the concentration of compound required to inhibit the production of S1P by 50%. ND=not determined.", "units": {"inhibition at 20 µg/mL": "%"}, "values": [
      {"smiles": "O=C(NCCc1ccc(O)c(O)c1)C12CC3CC(C1)CC(c1ccc(Cl)cc1)(C3)C2", "note": "[A44, 3-(4-Chloro-phenyl)-adamantane-1-carboxylic acid [2-(3,4-dihydroxy-phenyl)-ethyl]-amide]", "inhibition at 20 µg/mL": 88},
      {"smiles": "CC(C)NCC12CC3CC(C1)CC(c1ccc(Cl)cc1)(C3)C2", "note": "[A75, [3-(4-Chloro-phenyl)-adamantan-1-ylmethyl]-isopropyl-amine]", "inhibition at 20 µg/mL": 41},
      {"smiles": "O=C(Nc1ccc(Cl)c(C(F)(F)F)c1)Nc1nc(-c2ccc(Cl)cc2)cs1", "note": "[B1, 1-[4-(4-Chloro-phenyl)-thiazol-2-yl]-3-(4-chloro-3-trifluoromethyl-phenyl)-urea]", "inhibition at 20 µg/mL": 32},
      {"smiles": "CCCCCCCCCCCCCC(=O)Nc1nc(-c2ccc(Cl)cc2)cs1", "note": "[B2, Tetradecanoic acid [4-(4-chloro-phenyl)-thiazol-2-yl]-amide]", "inhibition at 20 µg/mL": 43},
      {"smiles": "C=CCCCCCCCCC(=O)Nc1nc(-c2ccc(Cl)cc2)cs1", "note": "[B4, Undec-10-enoic acid [4-(4-chloro-phenyl)-thiazol-2-yl]-amide]", "inhibition at 20 µg/mL": 39},
      {"smiles": "O=C(C=Cc1ccc([N+](=O)[O-])cc1)Nc1nc(-c2ccc(Cl)cc2)cs1", "note": "[B5, N-[4-(4-Chloro-phenyl)-thiazol-2-yl]-3-(4-nitro-phenyl)-acrylamide]", "inhibition at 20 µg/mL": 25},
      {"smiles": "CCCCCCCCC=CCCCCCCCC(=O)Nc1nc(-c2ccc(Cl)cc2)cs1", "note": "[B6, Octadec-9-enoic acid [4-(4-chloro-phenyl)-thiazol-2-yl]-amide]", "inhibition at 20 µg/mL": 21},
      {"smiles": "O=C(C=Cc1ccccc1)Nc1nc(-c2ccc(Cl)cc2)cs1", "note": "[B7, N-[4-(4-Chloro-phenyl)-thiazol-2-yl]-3-phenyl-acrylamide]", "inhibition at 20 µg/mL": 21},
      {"smiles": "CCCC(=O)Oc1ccc(C=CC(=O)Nc2nc(-c3ccc(Cl)cc3)cs2)cc1OC", "note": "[B8, Butyric acid 4-{2-[4-(4-chloro-phenyl)-thiazol-2-ylcarbamoyl]-vinyl}-2-methoxy-phenyl ester]", "inhibition at 20 µg/mL": 80},
      {"smiles": "COc1cc(C=CC(=O)Nc2nc(-c3cccc(Cl)c3)cs2)ccc1O", "note": "[B9, N-[4-(3-Chloro-phenyl)-thiazol-2-yl]-3-(4-hydroxy-3-methoxy-phenyl)-acrylamide]", "inhibition at 20 µg/mL": 32},
      {"smiles": "COc1cc(C=CC(=O)Nc2nc(-c3ccc(Cl)cc3)cs2)ccc1OC(C)=O", "note": "[B10, Acetic acid 4-{2-[4-(4-chloro-phenyl)-thiazol-2-ylcarbamoyl]-vinyl}-2-methoxy-phenyl ester]", "inhibition at 20 µg/mL": 48},
      {"smiles": "CCCC(=O)Oc1ccc(C=CC(=O)Nc2nc(-c3ccc(Cl)cc3)cs2)cc1OC(=O)CCC", "note": "[B11, Butyric acid 2-butyryloxy-5-{2-[4-(4-chloro-phenyl)-thiazol-2-ylcarbamoyl]-vinyl}-phenyl ester]", "inhibition at 20 µg/mL": 55},
      {"smiles": "CC(=O)Oc1ccc(C=CC(=O)Nc2nc(-c3ccc(Cl)cc3)cs2)cc1", "note": "[B12, Acetic acid 4-{2-[4-(4-chloro-phenyl)-thiazol-2-ylcarbamoyl]-vinyl}-phenyl ester]", "inhibition at 20 µg/mL": 13},
      {"smiles": "CCCC(=O)Oc1ccccc1C=CC(=O)Nc1nc(-c2ccc(Cl)cc2)cs1", "note": "[B13, Butyric acid 2-{2-[4-(4-chloro-phenyl)-thiazol-2-ylcarbamoyl]-vinyl}-phenyl ester]", "inhibition at 20 µg/mL": 0},
      {"smiles": "CCCC(=O)Oc1cccc(C=CC(=O)Nc2nc(-c3ccc(Cl)cc3)cs2)c1", "note": "[B14, Butyric acid 3-{2-[4-(4-chloro-phenyl)-thiazol-2-ylcarbamoyl]-vinyl}-phenyl ester]", "inhibition at 20 µg/mL": 39},
      {"smiles": "CCCC(=O)Oc1ccc(C=CC(=O)Nc2nc(-c3ccc(Cl)cc3)cs2)cc1", "note": "[B15, Butyric acid 4-{2-[4-(4-chloro-phenyl)-thiazol-2-ylcarbamoyl]-vinyl}-phenyl ester]", "inhibition at 20 µg/mL": 23},
      {"smiles": "CCCC(=O)Oc1ccc(CC(=O)Nc2nc(-c3ccc(Cl)cc3)cs2)cc1OC", "note": "[B16, Butyric acid 4-{[4-(4-chloro-phenyl)-thiazol-2-ylcarbamoyl]-methyl}-2-methoxy-phenyl ester]", "inhibition at 20 µg/mL": 83},
      {"smiles": "CCCC(=O)Oc1ccc(CC(=O)Nc2nc(-c3ccc(Cl)cc3)cs2)cc1OC(=O)CCC", "note": "[B17, Butyric acid 2-butyryloxy-5-{[4-(4-chloro-phenyl)-thiazol-2-ylcarbamoyl]-methyl}-phenyl ester]", "inhibition at 20 µg/mL": 57},
      {"smiles": "CCCC(=O)Oc1cc(C=CC(=O)Nc2nc(-c3ccc(Cl)cc3)cs2)ccc1OC", "note": "[B18, Butyric acid 5-{2-[4-(4-chloro-phenyl)-thiazol-2-ylcarbamoyl]-vinyl}-2-methoxy-phenyl ester]", "inhibition at 20 µg/mL": 65},
      {"smiles": "CCCC(=O)Oc1ccc(C=CC(=O)Nc2nc(-c3ccc(C)cc3)cs2)cc1OC", "note": "[B19, Butyric acid 2-methoxy-4-[2-(4-p-tolyl-thiazol-2-ylcarbamoyl)-vinyl]-phenyl ester]", "inhibition at 20 µg/mL": 53},
      {"smiles": "CCCC(=O)Oc1ccc(C=CC(=O)Nc2nc(-c3ccc(Br)cc3)cs2)cc1OC", "note": "[B20, Butyric acid 4-{2-[4-(4-bromo-phenyl)-thiazol-2-ylcarbamoyl]-vinyl}-2-methoxy-phenyl ester]", "inhibition at 20 µg/mL": 62},
      {"smiles": "O=C(C=Cc1ccc2c(c1)OCO2)Nc1nc(-c2ccc(Cl)cc2)cs1", "note": "[B21, 3-Benzo[1,3]dioxol-5-yl-N-[4-(4-chloro-phenyl)-thiazol-2-yl]-acrylamide]", "inhibition at 20 µg/mL": 41},
      {"smiles": "O=C(Cc1ccc2c(c1)OCO2)Nc1nc(-c2ccc(Cl)cc2)cs1", "note": "[B22, 2-Benzo[1,3]dioxol-5-yl-N-[4-(4-chloro-phenyl)-thiazol-2-yl]-acetamide]", "inhibition at 20 µg/mL": 33},
      {"smiles": "COc1ccc(CCC(=O)Nc2nc(-c3ccc(Cl)cc3)cs2)cc1OC", "note": "[B23, N-[4-(4-Chloro-phenyl)-thiazol-2-yl]-3-(3,4-dimethoxy-phenyl)-propionamide]", "inhibition at 20 µg/mL": 14},
      {"smiles": "CCCC(=O)Oc1ccc(C(=O)Nc2nc(-c3ccc(Cl)cc3)cs2)cc1OC", "note": "[B24, Butyric acid 4-[4-(4-chloro-phenyl)-thiazol-2-ylcarbamoyl]-2-methoxy-phenyl ester]", "inhibition at 20 µg/mL": 69},
      {"smiles": "CCCC(=O)Oc1ccc(C(=O)Nc2nc(-c3ccc(Cl)cc3)cs2)cc1OC(=O)CCC", "note": "[B25, Butyric acid 2-butyryloxy-4-[4-(4-chloro-phenyl)-thiazol-2-ylcarbamoyl]-phenyl ester]", "inhibition at 20 µg/mL": 79},
      {"smiles": "CCCC(=O)Oc1ccc(CCC(=O)Nc2nc(-c3ccc(Cl)cc3)cs2)cc1OC(=O)CCC", "note": "[B26, Butyric acid 2-butyryloxy-4-{2-[4-(4-chloro-phenyl)-thiazol-2-ylcarbamoyl]-ethyl}-phenyl ester]", "inhibition at 20 µg/mL": 79},
      {"smiles": "CCCC(=O)Oc1cc(C(=O)Nc2nc(-c3ccc(Cl)cc3)cs2)cc(OC(=O)CCC)c1OC(=O)CCC", "note": "[B27, Butyric acid 2,6-bis-butyryloxy-4-[4-(4-chloro-phenyl)-thiazol-2-ylcarbamoyl]-phenyl ester]", "inhibition at 20 µg/mL": 68},
      {"smiles": "CCCC(=O)Oc1ccc(C=CC(=O)Nc2nc(-c3ccc(F)cc3)cs2)cc1OC", "note": "[B28, Butyric acid 4-{2-[4-(4-fluoro-phenyl)-thiazol-2-ylcarbamoyl]-vinyl}-2-methoxy-phenyl ester]", "inhibition at 20 µg/mL": 65},
      {"smiles": "O=C(NCc1ccncc1)c1nc(-c2ccc(Cl)cc2)cs1", "note": "[B34, 4-(4-Chloro-phenyl)thiazole-2-carboxylic acid (pyridin-4-ylmethyl)amide]", "inhibition at 20 µg/mL": 28},
      {"smiles": "CN(C)c1ccc(CNC(=O)c2nc(-c3ccc(Cl)cc3)cs2)cc1", "note": "[B35, 4-(4-Chloro-phenyl)-thiazole-2-carboxylic acid 4-dimethylamino-benzylamide]", "inhibition at 20 µg/mL": 17},
      {"smiles": "O=C(NCc1cc(F)cc(F)c1)c1nc(-c2ccc(Cl)cc2)cs1", "note": "[B36, 4-(4-Chloro-phenyl)-thiazole-2-carboxylic acid 3,5-difluoro-benzylamide]", "inhibition at 20 µg/mL": 0},
      {"smiles": "O=C(NCc1ccc(Cl)c(C(F)(F)F)c1)c1nc(-c2ccc(Cl)cc2)cs1", "note": "[B37, 4-(4-Chloro-phenyl)-thiazole-2-carboxylic acid 4-chloro-3-trifluoromethyl-benzylamide]", "inhibition at 20 µg/mL": 0},
      {"smiles": "O=C(NCc1ccc(F)cc1Cl)c1nc(-c2ccc(Cl)cc2)cs1", "note": "[B38, 4-(4-Chloro-phenyl)-thiazole-2-carboxylic acid 2-chloro-4-fluoro-benzylamide]", "inhibition at 20 µg/mL": 0},
      {"smiles": "O=C(NCc1ccc(F)c(Cl)c1)c1nc(-c2ccc(Cl)cc2)cs1", "note": "[B39, 4-(4-Chloro-phenyl)-thiazole-2-carboxylic acid 3-chloro-4-fluoro-benzylamide]", "inhibition at 20 µg/mL": 0},
      {"smiles": "O=C(NCc1ccc(F)c(F)c1)c1nc(-c2ccc(Cl)cc2)cs1", "note": "[B40, 4-(4-Chloro-phenyl)-thiazole-2-carboxylic acid 3,4-difluoro-benzylamide]", "inhibition at 20 µg/mL": 0},
      {"smiles": "COc1ccc(CCNC(=O)c2nc(-c3ccc(Cl)cc3)cs2)cc1Br", "note": "[B41, 4-(4-Chloro-phenyl)-thiazole-2-carboxylic acid [2-(3-bromo-4-methoxy-phenyl)-ethyl]-amide]", "inhibition at 20 µg/mL": 0},
      {"smiles": "O=C(NCc1cc(F)c(F)c(F)c1)c1nc(-c2ccc(Cl)cc2)cs1", "note": "[B42, 4-(4-Chloro-phenyl)-thiazole-2-carboxylic acid 3,4,5-trifluoro-benzylamide]", "inhibition at 20 µg/mL": 0},
      {"smiles": "O=C(NCc1cccc(OC(F)(F)F)c1)c1nc(-c2ccc(Cl)cc2)cs1", "note": "[B43, 4-(4-Chloro-phenyl)-thiazole-2-carboxylic acid 3-trifluoromethoxy-benzylamide]", "inhibition at 20 µg/mL": 0},
      {"smiles": "O=C(NCCc1cccc(Oc2ccccc2)c1)c1nc(-c2ccc(Cl)cc2)cs1", "note": "[B44, 4-(4-Chloro-phenyl)-thiazole-2-carboxylic acid [2-(3-phenoxy-phenyl)-ethyl]-amide]", "inhibition at 20 µg/mL": 0}
    ]},
    {"tested_on": "endogenous SK activity in MDA-MB-231 cells", "test": "Cellular S1P production (endogenous SK activity) in MDA-MB-231 cells", "format": "cell-based", "conditions": "Homo sapiens; MDA-MB-231 cells, varying concentrations; concentration inhibiting S1P production by 50%", "method": "as §1", "units": {"IC50": "µM"}, "values": [
      {"smiles": "O=C(NCCc1ccc(O)c(O)c1)C12CC3CC(C1)CC(c1ccc(Cl)cc1)(C3)C2", "note": "[A44, 3-(4-Chloro-phenyl)-adamantane-1-carboxylic acid [2-(3,4-dihydroxy-phenyl)-ethyl]-amide]", "IC50": 35},
      {"smiles": "CCCC(=O)Oc1ccc(C=CC(=O)Nc2nc(-c3ccc(Cl)cc3)cs2)cc1OC", "note": "[B8, Butyric acid 4-{2-[4-(4-chloro-phenyl)-thiazol-2-ylcarbamoyl]-vinyl}-2-methoxy-phenyl ester]", "IC50": 34}
    ]}
  ]
}
